Test results: patent US7740841B1, “Therapeutic method for reducing angiogenesis” (Sunnybrook Health Science Center, priority 2000, dated 2010)

Tests used:
SK-N-MC cells = assay: In vitro drug sensitivity, 3H-thymidine incorporation; type: cell-based, human; settings: 100-400 ng/ml, 24 hours
Source text: (§1) Cells and culture conditions: Neuroblastoma cell lines SK-N-MC, SK-N-AS were obtained from American Type Culture Collection (ATCC) and expanded as a monolayer culture by serial passage on tissue culture plates (Nunc, Denmark) in DMEM, 5% fetal bovine serum (Gibco, Grand Island, N.Y., USA). Human umbilical vein endothelial cells (HUVEC) (Clonetics, San Diego, Calif.) were expanded on 1% gelatin-coated tissue culture plates in MCDB131 culture medium (JRH Biosciences, Lenexa, Kans., USA) supplemented with 5 ng/ml bFGF (R&D, Minneapolis, Minn.), 10 units/ml heparin (Wyeth-Ayerst Canada), 10 ng/ml EGF (UBI, Lake Placid, N.Y.) and 10% fetal bovine serum.
In vitro determination of drug sensitivity: Three thousand cells in 200 μl growth media per well were plated in 96-well flat bottom tissue culture plates (Nunc, Denmark) and incubated at 37° C., 5% CO2 for 24 hours prior to initiation of treatment. The cells were then washed with PBS and treated with 1-500 ng/ml vinblastine sulphate (Calbiochem, La Jolla, Calif.) for 24 hours, in groups of eight wells per dose. […] Incorporated radioactivity was measured on Wallac 1205 BetaPlate Scintillation Counter (Wallac Oy, Finland) and proliferation was expressed as a percentage of ^3H-thymidine in treated cells vs. that in controls. […]

[1] = test system: bFGF induced vascularization; assay: In vivo Matrigel plug angiogenesis assay; set-up: species or system Balb/cJ mice; settings: DC101 800 μg i.p. and/or vinblastine 1 mg/m^2 i.p. on day 4 and 7, sacrifice day 10
Protocol: In vivo angiogenesis assessment by the Matrigel plug assay (5,25): Matrigel (Collaborative Biomedical Products, Bedford, Mass.) stored at −20° C., was thawed at 4° C. overnight and mixed with 500 ng/ml bFGF. 0.5 ml of this mixture was then injected subcutaneously into the shaved flanks of twenty 6-8 week old female Balb/cJ mice (Jackson Labs, Bar Harbor, Me.). Five mice, used as negative controls, were injected with Matrigel alone. Three days later, treatment mice were randomized into four groups as follows: • Group I—saline i.p., • Group II—800 μg DC101 i.p. • Group III—1 mg/m^2 vinblastine i.p. • Group IV—combination therapy.
All 25 mice were treated on day 4 and 7 and sacrificed on day 10. Blood samples were collected into heparinized tubes by cardiac puncture, centrifuged immediately following their collection, plasma separated and protected from light at 4° C. […] The following day, the plugs were homogenized, centrifuged at 5000 rpm for 10 minutes and supernatant saved in the dark for analysis of fluorescence. Fluorescence readings were obtained on FL600 Fluorescence Plate Reader using a standard curve created by serial dilution of FITC-dextran used for injection. Angiogenic response was expressed as a ratio of Matrigel plug fluorescence:plasma fluorescence.
To address these questions, we repeated the same fluorescence measurement using an in vivo Matrigel plug angiogenesis assay. […]

[2] = mouse, in vivo; cited from earlier work
HUVEC = assay: In vitro drug sensitivity, 3H-thymidine incorporation; type: cell-based, human; settings: 24 hours
Source text: as §1
(§2) In vitro determination of drug sensitivity: Three thousand cells in 200 μl growth media per well were plated in 96-well flat bottom tissue culture plates (Nunc, Denmark) and incubated at 37° C., 5% CO2 for 24 hours prior to initiation of treatment. […] The cells were then pulsed for 6 hrs with 2 μCi/well of methyl-^3H-thymidine (Amersham Life Science, Buckinghamshire, England). The plates were frozen, thawed and the DNA harvested onto a filtermat using a Titertek Cell Harvester. Incorporated radioactivity was measured on Wallac 1205 BetaPlate Scintillation Counter (Wallac Oy, Finland) and proliferation was expressed as a percentage of ^3H-thymidine in treated cells vs. that in controls.
(§3) All three cell lines were grown in DMEM with […], but the HUVEC were grown on gelatinized plates and in the presence of additional growth factors (bFGF and EGF).

SK-N-AS cells = assay: as above; type: cell-based, human; settings: 100-400 ng/ml, 24 hours
Source text: as §1, §2, §3

[3] = mouse, in vivo
Protocol: The body weight, tumor size and general clinical status of the animals were recorded every 2-3 days. Perpendicular tumor diameters were measured using a vernier scale caliper and tumor volume was estimated using the formula for ellipsoid: (width^2×length)/2. Growth curves were statistically analyzed using repeated measures ANOVA. […] As required by institutional guidelines, the mice were sacrificed when tumor size reached 1.5 cm^3 or 7.5-10% of their body weight.
To evaluate this aspect of DC101/vinblastine combination therapy, the health status of the mice was monitored. Weight was plotted at regular intervals and considered a surrogate for evaluation of systemic well being, anorexia, or failure to thrive.

[4] = test system: neuroblastoma xenograft tumors; assay: Histopathologic analysis of tumors (H/E and TUNEL); type: in vivo, CB-17 SCID mice; settings: excised tumors; combination group at 7.5 weeks of treatment
Source text: Histology: All tumors were excised, fixed in 10% (v/v) formalin and processed for immunohistochemical analysis. To obtain adequate tissue for the combination treatment group, two mice were sacrificed at 7.5 weeks of treatment. Paraffin blocks were cut to 5 μm sections and stained with haematoxylin/eosin for morphology evaluation and with Apoptosis Detection System (Promega, Madison, Wis.) for assessment of programmed cell death.
Histopathologic analysis: To further elucidate the mechanisms involved in the tumor regression following treatment with vinblastine, DC101, or the combined therapy, tissue histopathology assessment was undertaken. Cancer cells with high nuclear to cytoplasmic ratio form cuffs around central vessels, and apoptotic cells characterized by pyknotic nuclei and cytoplasmic blebbing, are only evident as a thin rim at the periphery of the cuffs. The nuclei of these cells stain strongly for terminal deoxynucleotidyl transferase (TUNEL) reactivity, as expected for cells undergoing apoptosis. […] There is a close similarity of the appearance of H/E and TUNEL stain. […] Rather than a typical single layer of flattened endothelial cells surrounding the vascular lumen in untreated group, we observed edema, and detachment from surrounding basement membrane and leading to complete vascular wall disintegration and tumor cell death.

[5] = test system: SK-N-AS human neuroblastoma xenografts; assay: Tumor perfusion by FITC-Dextran fluorescence; type: in vivo, CB-17 SCID mice; settings: vinblastine 1 mg/m^2 i.p. and/or DC101 800 μg i.p. every three days, 10 days
Protocol: Relative tumor vascularity assessed by an FITC-Dextran perfusion assay: The method was designed to assess the relative functionality of the tumor vasculature. 2×10^6 SK-N-AS neuroblastoma cells were injected into the flanks of CB-17 SCID mice. Tumors were allowed to grow to approximately 0.75 cm^3 at which point tumor bearing mice were then treated with 1 mg/m^2 vinblastine i.p. every three days, 800 μg DC101 i.p. every three days, combination of the two agents or saline as a control. […] Fluorescence readings were obtained on a FL600 Fluorescence Plate Reader (Bio-tek Instruments Inc., Winooski, Vt., USA), from a standard curve created by serial dilution of the FITC-dextran used for injection. The ratio of tumor fluorescence:plasma fluorescence was assumed to be reflective of the degree of tumor perfusion.
Tumor perfusion by assessment of intravascular fluorescence: To further explore the possibility that tumor regression induced with treatment using DC101 and vinblastine was indeed due to the vascular injury, rather than a direct anti-tumor cell effect, we assessed tumor perfusion directly by using a FITC-Dextran fluorescence method. […]

[6] = test system: SK-N-MC neuroepithelioma or SK-N-AS neuroblastoma xenografts; assay: In vivo tumor growth assessment, subcutaneous xenografts; set-up: species or system CB-17 SCID mice; settings: established ~0.75 cm^3 xenografts; DC101 800 μg i.p. every three days; low-dose vinblastine
Protocol: In vivo tumor growth assessment: SK-N-MC, cells were harvested using 1% Trypsin EDTA (GibcoBRL, Gaithesburg, Md.), and single cell suspension of 2×10^6 cells in 0.2 ml of growth media was injected subcutaneously into the flanks of 4-6 week old CB-17 SCID mice (Charles River, St-Constant, Quebec). Approximately 3 weeks later, most tumors had grown to ˜0.75 cm^3, and mice were randomized into groups of 5 animals. Two independent experiments were performed, each totaling 20 animals in 4 groups. The treatment was as follows:
Group I (Control)—0.4 ml of PBS (DC101 vehicle) i.p. every three days and 0.15 ml injectable saline (vinblastine vehicle) i.p. every three days.
Group II—0.4 ml of 2 mg/ml DC101 antibody (800 μg/mouse) (24) every three days and 0.15 ml of injectable saline i.p. every three days
Group III—vinblastine sulfate 0.75 mg/m^2 i.p. bolus at the start of therapy, followed by 1 mg/m^2/day via subcutaneous Alzet osmotic pumps (Alza Corp, Palo Alto, Calif.) for 3 weeks, followed by maintenance therapy with 0.15 ml of 0.067 mg/ml vinblastine sulfate (1.5 mg/m^2) i.p. every three days, and 0.4 ml of PBS i.p. every three days
Group IV—combination of DC101 and vinblastine at doses identical to the single agent groups. […]

CC[C@]1(O)C[C@@H]2CN(CCc3c([nH]c4ccccc34)[C@@](C(=O)OC)(c3cc4c(cc3OC)N(C)[C@H]3[C@@](O)(C(=O)OC)[C@H](OC(C)=O)[C@]5(CC)C=CCN6CC[C@]43[C@@H]65)C2)C1 [vinblastine, vinblastine sulphate]
inhibition of proliferation (3H-thymidine incorporation) (SK-N-MC cells): strongly inhibited
bFGF induced vascularization of Matrigel plug (plug:plasma fluorescence) [1]: 62.5 % of the positive control group
MTD in mice relative to MTD in humans [2]: 4-5 times
inhibition of proliferation (3H-thymidine incorporation) (HUVEC; 0.78 ng/ml): retained almost the same degree of inhibitory activity
inhibition of proliferation (3H-thymidine incorporation) (HUVEC; 100-400 ng/ml): strongly inhibited, especially HUVEC
inhibition of proliferation (3H-thymidine incorporation) (SK-N-AS cells): strongly inhibited
body weight / toxicity profile [3]: some weight gain retardation, but the differences never became significantly different from controls
tumor histology (H/E, TUNEL apoptosis) [4]: increase in the width of the apoptotic rims
decrease in tumor perfusion (tumor:plasma fluorescence) [5]: 41%
effect on tumor growth [6]: significant, albeit not sustained, regression of tumor growth
